Measured values: US7235534B2, “Antisense strategy to modulate estrogen receptor response (ER α and/or ER β )” (Institut de Cardiologie de Montreal, priority 2001, dated 2007)

Legend:
p38 MAPK = experiment: Western blot of p38 MAPK phosphorylation in PAEC; type: cell-based, porcine; conditions: for inhibition of p38 MAPK phosphorylation induced by a 30 minutes treatment with 17βE: antagonist 10^−7M 5 min prior to 17βE 10^−8M
Method: Confluent PAEC and PSMC were starved for 7 hours in DMEM and antibiotics. Culture medium was removed, and cells were rinsed twice with ice-cold DMEM. PSMC were incubated on ice in DMEM with or without 17βE (10^−8M) for 30 min, incubated at 37° C. for 5, 10, 15 and 30 min, then brought back on ice. Cell were then rinsed with cold DMEM, incubated on ice in DMEM, bovine serum albumin (1 mg/ml), PDGF-BB (10 ng/ml) for 30 min, incubated at 37° C. for 5 min, and then brought back on ice. PAEC were incubated on ice in DMEM with or without 17βE (10^−7M) for 30 min, then incubated at 37° C. for 5, 10, 15 and 30 min and brought back on ice. […] Total proteins were prepared by the addition of 500 μl of lysis buffer containing phenylmethylsulfonyl fluoride 1 mM, leupeptin 10 μg/ml, aprotinin 30 μg/ml, and NaVO3 1 mM (Sigma). Plates were incubated at 4° C. for 30 min and scraped, and the protein concentration was determined with a Bio-Rad protein kit (Bio-Rad, Hercules, Calif.). Same protein quantity for each cell type and condition were dissolved in Laemmli's buffer, boiled for 5 min in reducing conditions, separated by a 10% gradient SDS-PAGE (Protean II kit; Bio-Rad), and transblotted onto a 0.45-μm polyvinylidene difluoride membranes (Millipore Corp., Bedford, Mass.). The membranes were blocked in 5% Blotto-TTBS (5% nonfat dry milk; Bio-Rad), 0.05% Tween 20, 0.15 M NaCl, 25 mM Tris-HCl, pH 7.5) for 1 h at room temperature with gentle agitation and incubated overnight at 4° C. in 0.5% Blotto-TTBS with the addition of an anti-phospho p42/44 MAPK or an anti-phospho p38 MAPK rabbit polyclonal antiserums (α-pp42/44; dilution of 1:10 000, and α-pp38; dilution 1:5000, New England BioLabs, Beverly, Mass.). Membranes were washed with TTBS, and incubated at room temperature with an anti-rabbit IgG antibody coupled to horseradish peroxidase (dilution 1:10 000–1:20 000, Santa Cruz Biotechnology, Santa Cruz, Calif.) in 0.5% Blotto-TTBS for 30 min. […] Kaleidoscope molecular weight and SDS-plyacrylamide gel electrophoresis broad range marker proteins (Bio-Rad) were used as standards for SDS-plyacrylamide gel electrophoresis. Digital image densitometry (PDI Bioscience, Aurora, ON) was performed on x-ray film to determine relative percentages of p42/44 and p38 MAPK phosphorylation.
Confluent PAEC and PSMC were preteated with or without antisense sequences as described above for Western Blot analysis. Cells were rinsed twice with ice-cold DMEM. PSMC and PAEC were stimulated with or without 17βE (10^−8 mol/L) as previously described (Geraldes P). Briefly, PSMC were incubated on ice in DMEM with or without 17βE (10^−8 mol/L) for 30 minutes, incubated at 37° C. for 30 minutes, then brought back on ice. Cells were then rinsed with cold DMEM, incubated on ice in DMEM, bovine serum albumin (1 mg/mL), PDGF-BB (10 ng/mL) for 30 minutes, incubated at 37° C. for 5 and 30 minutes, and then brought back on ice. PAEC were incubated on ice in DMEM with or without 17βE (10^−8 mol/L) for 30 minutes, then incubated at 37° C. for 5 and 30 minutes and brought back on ice. Total proteins were prepared-by the addition of 500 μL of lysis buffer, incubated at 4° C. for 30 minutes and scraped to collect the proteins. Same quantity of protein was separated by a 10% gradient SDS-PAGE (Protean II kit; Bio-Rad), and transblotted onto a 0.45-μm polyvinylidene difluoride membranes (Millipore Corp.). […]

[1] = tested on: Porcine aortic endothelial cells (PAEC); experiment: Mitogenic assay on PAEC (cell count); type: cell-based; conditions: for inhibition of the 17βE mitogenic activity in PAEC: antagonist 10^−7M pretreatment
Method: Confluent PAEC and PSMC were rinsed with DMEM and trypsinized. Cells were resuspended in 10 ml of DMEM, 5% FBS, and antibiotics, and a cell count was obtained with a Coulter Counter Z1 (Coulter Electronics, Luton, UK). PAEC and PSMC were seeded at 1×10^4 cells/well of 24-well tissue culture plates (Becton-Dickinson, Rutherford, N.J., U.S.A.) stimulated for 24 h in DMEM, 5% FBS, and antibiotics, and starved for 48 h in DMEM, 0.1% FBS, and antibiotics. […] After trypsinization, cell number was determined by using a Coulter counter.
Confluent PAEC and PSMC were rinsed with DMEM and trypsinized. Cells were resuspended in 10 mL of DMEM, 5% FBS, and antibiotics, and a cell count was obtained. PAEC and PSMC were initially seeded at 1×10^4cells/well of 24-well tissue culture plates stimulated for 24 hours in DMEM, 5% FBS, and antibiotics with or without antisense oligomers (10^−6 mol/L), and starved for 48 hours in DMEM, 0.1% FBS, and antibiotics with or without antisense oligomers (10^−6 mol/L daily) for G0 synchronization. Initial cell number for growth was determined using a Coulter counter. The cells were stimulated for 72 hours in DMEM, 1% FBS, antibiotics with or without antisense oligomers (10^−6 mol/L daily) and with or without of 17βE (Sigma). After trypsinization, cell number was determined by using a Coulter counter.

Compound	inhibition of p38 MAPK phosphorylation induced by a 30 minutes treatment with 17βE (p38 MAPK)	inhibition of the 17βE mitogenic activity in PAEC ([1]; 17βE 10^−8M)	time of maximum stimulation of p38 MAPK phosphorylation (p38 MAPK; 17βE 10^−8M)	increase of p38 MAPK phosphorylation (p38 MAPK; 17βE 10^−8 mol/L, 30 minutes, Example 2)	induction of PAEC proliferation over FBS 1% treatment ([1]; 17βE 10^−8M, 72 h, Example 1)	induction of PAEC proliferation over FBS 1% treatment ([1]; 17βE 10^−8 mol/L, Example 2)	concentration of maximum induction of PAEC proliferation ([1]; 17βE 10^−10 to 10^−7M, DMEM 1% FBS, data not shown)
O=C(c1ccc(OCN2CCCCC2)cc1)c1c(-c2ccc(O)cc2)sc2cc(O)ccc12 [Ral, Raloxifen]	98%	inhibited completely					
CC/C(=C(\c1ccccc1)c1ccc(OCCN(C)C)cc1)c1ccccc1 [Tam, Tamoxifen]	84%	inhibited completely					
CC/C(=C(\c1ccc(O)cc1)c1ccc(OCCN(C)C)cc1)c1ccccc1 [4-OHT, 4-OH-Tamoxifen]	81%	inhibited completely					
C[C@]12CC[C@@H]3c4ccc(O)cc4CC[C@H]3[C@@H]1CC[C@@H]2O [17βE, 17-beta-estradiol]			30 min	254%	37%	123%	10^−8 M
